Assay results reported in ChEMBL document CHEMBL1201862, “PubChem BioAssay data set” (2004).
Active and inactive are the calls of the source.

Legend:
[1] = target: T1, Ubiquitin-conjugating enzyme E2 N (Homo sapiens, UniProt P61088); type: functional;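 also: Dose-response confirmation in a TR-FRET assay detecting UBC13-driven polyubiquitin chain formation, inhibition measured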
T1 sequence (P61088 whole entry): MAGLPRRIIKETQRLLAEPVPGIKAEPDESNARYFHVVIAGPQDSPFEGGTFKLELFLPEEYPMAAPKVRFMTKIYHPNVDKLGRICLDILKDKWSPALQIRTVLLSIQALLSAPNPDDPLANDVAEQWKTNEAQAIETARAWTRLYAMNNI

[2] = target: T2, Calpain-2 catalytic subunit (Sus scrofa, UniProt P43367); experiment: pig calpain II inhibitor potency, dose response, biochemical, fluorogenic peptide substrate (AID 1420); type: functional
T2 sequence (P43367 whole entry): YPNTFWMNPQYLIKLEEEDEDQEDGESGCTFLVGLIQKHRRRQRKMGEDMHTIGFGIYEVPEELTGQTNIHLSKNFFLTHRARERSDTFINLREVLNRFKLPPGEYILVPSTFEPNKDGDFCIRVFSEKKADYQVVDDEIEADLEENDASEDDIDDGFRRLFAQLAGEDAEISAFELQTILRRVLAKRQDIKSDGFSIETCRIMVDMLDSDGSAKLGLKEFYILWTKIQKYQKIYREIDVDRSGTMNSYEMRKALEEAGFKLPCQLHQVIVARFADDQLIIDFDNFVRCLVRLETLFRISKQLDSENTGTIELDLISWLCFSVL

[3] = target: T3, Leucine aminopeptidase (Plasmodium falciparum 3D7, UniProt Q8IL11); experiment: P. falciparum M17LAP inhibitors, primary screen, biochemical, fluorogenic H-Leu-NHMec substrate, 1536-well (AID 1619); type: functional
T3 sequence (Q8IL11 whole entry): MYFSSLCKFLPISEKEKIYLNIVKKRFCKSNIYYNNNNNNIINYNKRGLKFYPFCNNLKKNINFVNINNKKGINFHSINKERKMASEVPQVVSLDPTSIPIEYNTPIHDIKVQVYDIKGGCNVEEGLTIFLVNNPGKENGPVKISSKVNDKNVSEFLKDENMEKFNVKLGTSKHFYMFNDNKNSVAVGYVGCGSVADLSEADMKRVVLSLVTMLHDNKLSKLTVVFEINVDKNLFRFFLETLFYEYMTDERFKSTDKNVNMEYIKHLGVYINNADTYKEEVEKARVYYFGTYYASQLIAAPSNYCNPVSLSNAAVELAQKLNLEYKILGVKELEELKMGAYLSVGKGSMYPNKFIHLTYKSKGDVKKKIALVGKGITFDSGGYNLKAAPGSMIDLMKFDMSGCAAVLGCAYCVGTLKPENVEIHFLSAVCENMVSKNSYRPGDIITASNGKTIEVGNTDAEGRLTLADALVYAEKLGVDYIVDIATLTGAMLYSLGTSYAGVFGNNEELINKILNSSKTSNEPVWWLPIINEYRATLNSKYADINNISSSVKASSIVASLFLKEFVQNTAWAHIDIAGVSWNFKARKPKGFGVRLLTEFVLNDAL

[4] = inhibitors of HIV Env-driven cell fusion, dose response, cherry-pick (AID 652057); type: functional, cell-based
[5] = off-target signal loss in HeLa-CEM21 co-culture – HeLa F-luc CTL cells, cherry-picked, counter-screen for HIV-1 Env fusion inhibitor project, dose response (AID 652040); type: functional, cell-based;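 also: potency for signal decrease marking cytotoxic or nonspecific inhibition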
[6] = inhibitors of clade B AD8 Env fusion, dose response, cell-based, cherry-pick (AID 652062); type: functional;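 also: luciferase signal from cell-cell fusion driven by HIV-1 clade B AD8 Env; potency is for inhibitors of fusion seen as a drop in luminescence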
[7] = ZM109 Env clade C HIV-1 fusion inhibitors, dose response, HeLa effector, CEM target cells, luciferase, cherry-pick (AID 652058); type: functional, cell-based
[8] = Shn3 3'UTR reporter inhibitors, dose response, cell-based, Clone20 osteoblasts, firefly luciferase, cherry-picked (AID 624132); type: functional;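 also: firefly luciferase luminescence from reporter carrying the Shn3 3'UTR in osteoblasts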
[9] = control 3'UTR Renilla luciferase suppression, dose response, counter-screen for Shn3 inhibitor project, cell-based, Clone20-Shn3RL, cherry-picked (AID 624133); type: functional
[10] = HepG2 cell cytotoxicity, dose response, cytotoxicity control for Shn3 inhibitor project, CellTiter-Glo, cherry-picked (AID 624134); type: functional, cell-based
[11] = target: Induced myeloid leukemia cell differentiation protein Mcl-1 (Homo sapiens, UniProt Q07820); type: functional
Induced myeloid leukemia cell differentiation protein Mcl-1, sequence (Q07820 whole entry): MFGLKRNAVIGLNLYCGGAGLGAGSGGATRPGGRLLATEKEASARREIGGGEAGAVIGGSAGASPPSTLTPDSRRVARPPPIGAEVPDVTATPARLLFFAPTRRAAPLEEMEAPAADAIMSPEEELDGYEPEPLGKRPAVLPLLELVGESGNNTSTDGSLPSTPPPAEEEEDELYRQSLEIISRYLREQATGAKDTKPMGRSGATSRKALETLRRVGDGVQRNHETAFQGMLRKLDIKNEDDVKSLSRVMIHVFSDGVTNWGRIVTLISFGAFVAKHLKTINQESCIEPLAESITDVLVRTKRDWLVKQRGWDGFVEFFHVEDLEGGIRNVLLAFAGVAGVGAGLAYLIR

[12] = Luminescence Cell-Based Dose Response HTS to Identify Activators of Luciferase Translation or Activity in H4 […] Cells. [Related pubchem assays: 1829 (Project Summary), 1814 (Primary HTS)]; type: functional
[13] = tested on: H4; experiment: Luminescence Cell-Based Dose Response HTS to Identify Activators of 5'UTR Stem-Loop Driven Prion Protein mRNA Translation in H4 Neuroglioblastoma Cells. [Related pubchem assays: 1829 (Project Summary), 1814 (Primary HTS)]; type: functional; settings: Homo sapiens
[14] = target: Mitogen-activated protein kinase 10 (Homo sapiens, UniProt P53779); experiment: Dose response biochemical screening assay for inhibitors of c-Jun N-Terminal Kinase 3 (JNK3). [Related pubchem assays: 746 ]
Mitogen-activated protein kinase 10, sequence (P53779 whole entry): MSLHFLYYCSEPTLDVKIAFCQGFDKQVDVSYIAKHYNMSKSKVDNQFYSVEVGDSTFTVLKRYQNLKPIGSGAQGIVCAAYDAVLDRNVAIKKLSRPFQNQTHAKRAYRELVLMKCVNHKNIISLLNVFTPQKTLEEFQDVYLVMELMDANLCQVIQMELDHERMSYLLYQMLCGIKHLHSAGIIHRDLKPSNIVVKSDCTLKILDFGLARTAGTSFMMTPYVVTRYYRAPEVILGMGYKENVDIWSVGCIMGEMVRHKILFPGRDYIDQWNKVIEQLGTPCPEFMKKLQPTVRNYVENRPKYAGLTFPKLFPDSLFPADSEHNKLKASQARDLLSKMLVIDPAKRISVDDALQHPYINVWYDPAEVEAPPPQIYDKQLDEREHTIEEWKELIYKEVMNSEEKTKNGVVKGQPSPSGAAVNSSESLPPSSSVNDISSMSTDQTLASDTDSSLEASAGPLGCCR

[15] = target: T4, Protein skinhead-1 (Caenorhabditis elegans, UniProt P34707); type: functional
T4 sequence (P34707 whole entry): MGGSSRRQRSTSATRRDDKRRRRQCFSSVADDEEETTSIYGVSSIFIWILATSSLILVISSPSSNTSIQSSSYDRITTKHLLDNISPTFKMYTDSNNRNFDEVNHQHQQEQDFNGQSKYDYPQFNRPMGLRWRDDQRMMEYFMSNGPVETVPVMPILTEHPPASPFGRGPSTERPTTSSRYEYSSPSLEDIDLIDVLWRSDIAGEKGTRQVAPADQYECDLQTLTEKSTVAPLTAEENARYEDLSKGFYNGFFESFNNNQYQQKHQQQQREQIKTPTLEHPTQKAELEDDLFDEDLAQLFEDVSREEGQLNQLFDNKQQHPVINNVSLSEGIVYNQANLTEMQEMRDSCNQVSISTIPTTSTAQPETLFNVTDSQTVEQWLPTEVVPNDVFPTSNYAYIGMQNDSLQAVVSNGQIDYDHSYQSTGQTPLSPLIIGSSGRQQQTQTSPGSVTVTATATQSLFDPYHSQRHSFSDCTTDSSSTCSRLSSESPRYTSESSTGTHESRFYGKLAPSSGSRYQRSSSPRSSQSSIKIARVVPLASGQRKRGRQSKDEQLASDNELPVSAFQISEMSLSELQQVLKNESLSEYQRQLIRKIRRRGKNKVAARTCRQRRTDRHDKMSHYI

[16] = target: T5, Mannose-6-phosphate isomerase (Homo sapiens, UniProt P34949); experiment: human PMI inhibitors, high substrate, primary screen, biochemical, fluorescence intensity, high mannose 6-phosphate (AID 1220)
T5 sequence (P34949 whole entry): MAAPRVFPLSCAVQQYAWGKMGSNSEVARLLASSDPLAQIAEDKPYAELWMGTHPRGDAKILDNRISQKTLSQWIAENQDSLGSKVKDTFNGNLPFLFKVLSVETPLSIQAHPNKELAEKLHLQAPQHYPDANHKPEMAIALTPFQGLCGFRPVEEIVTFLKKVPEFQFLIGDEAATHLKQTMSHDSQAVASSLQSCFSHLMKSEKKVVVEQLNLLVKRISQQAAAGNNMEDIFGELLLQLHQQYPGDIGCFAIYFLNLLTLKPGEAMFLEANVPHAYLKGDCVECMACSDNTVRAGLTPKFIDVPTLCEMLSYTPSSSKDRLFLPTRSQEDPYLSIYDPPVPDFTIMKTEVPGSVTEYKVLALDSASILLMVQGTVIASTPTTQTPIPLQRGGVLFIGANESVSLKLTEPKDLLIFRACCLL

[17] = target: T6, Protein RecA (Mycobacterium tuberculosis, UniProt P9WHJ3); experiment: Fluorescence Cell-Free Homogeneous Dose Retest to Identify Inhibitors of RecA-Intein Splicing Activity. [Related pubchem assays (depositor defined):AID2097, AID2223, AID489010, AID492950]; type: functional
T6 sequence (P9WHJ3 whole entry): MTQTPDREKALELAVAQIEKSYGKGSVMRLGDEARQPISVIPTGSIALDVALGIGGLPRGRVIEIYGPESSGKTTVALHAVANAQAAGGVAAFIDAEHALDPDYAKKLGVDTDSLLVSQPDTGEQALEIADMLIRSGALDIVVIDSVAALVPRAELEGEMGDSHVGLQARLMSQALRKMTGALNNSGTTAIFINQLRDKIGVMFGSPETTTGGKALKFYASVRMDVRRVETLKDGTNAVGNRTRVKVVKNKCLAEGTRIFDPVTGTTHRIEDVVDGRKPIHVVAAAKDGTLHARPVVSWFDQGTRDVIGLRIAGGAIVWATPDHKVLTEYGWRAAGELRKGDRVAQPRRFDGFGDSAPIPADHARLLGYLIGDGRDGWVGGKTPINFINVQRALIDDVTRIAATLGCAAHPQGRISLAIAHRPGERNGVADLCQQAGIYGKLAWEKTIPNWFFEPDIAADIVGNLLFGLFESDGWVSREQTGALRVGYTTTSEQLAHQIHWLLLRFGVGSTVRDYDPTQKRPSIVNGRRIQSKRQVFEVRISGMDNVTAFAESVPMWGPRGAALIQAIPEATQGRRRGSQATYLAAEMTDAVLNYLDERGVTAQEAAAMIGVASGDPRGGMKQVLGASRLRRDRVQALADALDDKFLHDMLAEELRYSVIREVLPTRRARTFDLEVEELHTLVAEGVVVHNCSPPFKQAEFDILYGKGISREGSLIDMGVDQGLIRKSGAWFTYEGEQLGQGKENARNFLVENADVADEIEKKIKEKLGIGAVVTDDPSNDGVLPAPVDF

[18] = target: T7, Replicative DNA helicase DnaB (Mycobacterium tuberculosis, UniProt P9WMR3); experiment: DnaB intein splicing inhibitors, dose response, biochemical, cell-free fluorescence (AID 449749); type: functional
T7 sequence (P9WMR3 whole entry): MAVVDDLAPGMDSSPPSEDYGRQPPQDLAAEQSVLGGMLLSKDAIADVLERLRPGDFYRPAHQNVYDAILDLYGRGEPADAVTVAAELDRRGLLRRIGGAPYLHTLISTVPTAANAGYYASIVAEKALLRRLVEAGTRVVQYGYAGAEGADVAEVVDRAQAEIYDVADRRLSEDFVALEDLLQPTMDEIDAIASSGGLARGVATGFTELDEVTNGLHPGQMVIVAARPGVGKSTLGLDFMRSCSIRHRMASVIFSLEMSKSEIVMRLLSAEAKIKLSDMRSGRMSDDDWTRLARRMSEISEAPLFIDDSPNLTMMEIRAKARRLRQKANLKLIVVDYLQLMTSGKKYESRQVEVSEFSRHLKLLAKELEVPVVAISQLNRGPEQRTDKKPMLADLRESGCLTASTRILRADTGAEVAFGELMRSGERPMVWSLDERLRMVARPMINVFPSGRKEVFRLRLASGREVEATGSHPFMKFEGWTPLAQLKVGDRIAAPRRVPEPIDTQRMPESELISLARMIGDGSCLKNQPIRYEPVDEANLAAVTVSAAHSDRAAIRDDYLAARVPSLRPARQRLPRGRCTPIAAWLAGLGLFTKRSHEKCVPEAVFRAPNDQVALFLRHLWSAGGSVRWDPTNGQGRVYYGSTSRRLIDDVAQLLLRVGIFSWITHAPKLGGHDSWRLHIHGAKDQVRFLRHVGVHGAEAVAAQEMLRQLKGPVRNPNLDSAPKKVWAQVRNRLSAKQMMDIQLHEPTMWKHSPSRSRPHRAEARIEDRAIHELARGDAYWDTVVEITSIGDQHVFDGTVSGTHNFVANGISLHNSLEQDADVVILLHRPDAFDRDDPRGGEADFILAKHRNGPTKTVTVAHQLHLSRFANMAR

With `Cc1ccc(/N=C2\C(Cl)=C(O)OC2OC(=O)c2ccccc2C)cc1` (centres undefined) the IC50 [1] was > 20 µM (inactive) and the IC50 [2] was 12.6 µM (not active).
In the case of `CCc1nnc(NS(=O)(=O)c2ccc(NC(=O)COc3ccc4ccccc4c3)cc2)s1`, the IC50 [3] is reported as 5.1 µM (active).
With `Cc1ccc(Nc2cnn(C34CC5CC(CC(CC(=O)O)(C5)C3)C4)c(=O)c2Cl)cc1` the IC50 [3] was 44.1 µM (active).
In the case of `CC(C)(C)C1CCc2onc(C(=O)NCc3ccc(F)cc3)c2C1` (centres undefined), the AC50 [4] is reported as 23 µM (active), the AC50 [5] is reported as 37 µM (active) and the AC50 [6] is reported as 21.9 µM (active). The AC50 [7] was 2.91 µM (active) and the IC50 [2] was > 50 µM (not active).
In the case of `CC(C)Oc1ccc(CCc2nnc(S)n2Cc2ccccc2)cc1`, the IC50 [2] is reported as 4.67 µM (not active).
In the case of `CC1CCC2C(=O)N(c3ccc(Cc4ccncc4)cc3)C(=O)C2C1` (centres undefined), the AC50 [8] is reported as 2.65 µM (active), the AC50 [9] is reported as 5.74 µM (active) and the IC50 [2] is reported as 13.3 µM (not active). For the same compound, the AC50 [10] was 47.7 µM (active).
In the case of `O=C(O)CC12CC3CC(C1)CC(n1ncc(NCc4ccc(F)cc4)c(Cl)c1=O)(C3)C2`, the IC50 [3] is reported as 54 µM (active).
With `COc1ccc(NC(=O)CN2C(=O)/C(=C3\SC(=S)N(C4CCS(=O)(=O)C4)C3=O)c3ccccc32)cc1` (centres undefined) the IC50 [11] was 3.39 µM (active).
In the case of `CN(C)c1ccc(C(CNC(=O)c2ccc(C#N)cc2)c2c[nH]c3ccccc23)cc1` (centres undefined), the IC50 [11] is reported as 2.78 µM (not active).
With `c1ccc(-n2nc3ccc4c[nH]nc4c3n2)cc1` the EC50 [12] was > 120 µM (not active), the EC50 [13] was 0.327 µM (active) and the IC50 [14] was 43 µM (not active). The IC50 [15] was > 100 µM (inactive).
In the case of `CCCC(=O)OCCNc1cc(SCCC(=O)OC)c2nonc2c1[N+](=O)[O-]`, the IC50 [16] is reported as > 50 µM (not active), the EC50 [17] is reported as 4.87 µM (active) and the AC50 [18] is reported as 2.88 µM (active).
